Assays:
PPAR gamma = molecular target: T1, PPAR gamma (Homo sapiens, UniProt P37231); assay: PPAR gamma stimulating activity (PPAR-mediated gene expression), alone and with 9-cis retinoic acid; format: cell-based; conditions: DMSO-treated cells = 1
T1 sequence (P37231 1-505): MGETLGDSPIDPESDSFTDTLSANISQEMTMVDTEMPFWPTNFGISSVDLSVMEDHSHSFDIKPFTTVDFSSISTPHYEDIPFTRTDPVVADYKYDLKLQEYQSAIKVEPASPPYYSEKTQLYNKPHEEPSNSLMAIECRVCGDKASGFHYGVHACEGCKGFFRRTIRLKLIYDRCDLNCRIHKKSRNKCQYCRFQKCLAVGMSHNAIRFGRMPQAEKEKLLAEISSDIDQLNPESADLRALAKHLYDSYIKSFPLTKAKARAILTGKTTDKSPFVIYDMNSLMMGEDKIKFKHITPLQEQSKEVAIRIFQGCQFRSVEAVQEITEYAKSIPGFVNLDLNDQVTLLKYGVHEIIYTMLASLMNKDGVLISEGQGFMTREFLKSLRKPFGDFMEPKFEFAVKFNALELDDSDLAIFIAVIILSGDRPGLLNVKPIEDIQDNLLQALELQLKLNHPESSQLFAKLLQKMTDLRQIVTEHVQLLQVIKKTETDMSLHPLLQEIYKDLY
Experimental: (§1) Female SCID beige mice were inoculated subcutaneously with 1×10^6 CX-1 human colon carcinoma cells. For 42 days 10 animals per group were orally treated with troglitazone, BM 13.1258 or BM 15.2054 (suspension in 0.5% methylcellulose). The development of tumor volume (measured in mm^3) was determined on day 45. Furthermore, following autopsy the lungs were histologically inspected for micrometastases. Inhibition of tumor growth and inhibition of number of pulmonal metastases were calculated as 100 minus tumor volume or number of metastases of the test group divided by that of the vehicle group expressed as a percentage. PPAR gamma stimulating activity of the compounds alone and in combination with the RXR specific agonist 9-cis retinoic acid were determined in accordance with a known method (Furnsinn, C., et al., Br. J. Pharmacol. 128 (1999) 1141-1148). The relative activation of PPAR-mediated gene expression is given as x-fold stimulation compared to DMSO-treated cells (activation=1).

[1] = system: CX-1 human colon carcinoma cells; assay: CX-1 human colon carcinoma xenograft in SCID beige mice: tumor volume and pulmonal micrometastases; format: in vivo; conditions: for Inhibition relative to vehicle group (tumor volume): day 45; for Mean tumor volume: measured on day 45; for Effect on metastatic load: human xenograft models; for Number of metastases: lung micrometastases per group, histology after autopsy
Experimental: as §1

[2] = system: human cancer cells (breast cancer, colon cancer, prostate cancer); assay: Inhibition of cell proliferation in human cancer cells; format: cell-based; conditions: human cancer cells of various tissue origins, e.g. breast, colon and prostate cancer
[3] = thiazolidinedione 10^−6 M in combination with 9-cis RA 10^−6 M
[4] = thiazolidinedione 10^−6 M, no 9-cis RA
[5] = thiazolidinedione 10^−7 M in combination with 9-cis RA 10^−6 M
[6] = thiazolidinedione 10^−7 M, no 9-cis RA

| SMILES | Inhibition relative to vehicle group (tumor volume) ([1]; 50 mg/kg oral for 42 days) [%] | Mean tumor volume ([1]; 50 mg/kg oral for 42 days) [mm^3] | Effect on metastatic load [1] | Relative activation of PPAR-mediated gene expression (PPAR gamma; [3]) [x-fold] | Relative activation of PPAR-mediated gene expression (PPAR gamma; [4]) [x-fold] | Relative activation of PPAR-mediated gene expression (PPAR gamma; [5]) [x-fold] | Relative activation of PPAR-mediated gene expression (PPAR gamma; [6]) [x-fold] | Inhibition of cell proliferation [2] | also measured |
| --- | --- | --- | --- | --- | --- | --- | --- | --- | --- |
| CC1=C(/C=C/C(C)=C\C=C\C(C)=C\C(=O)O)C(C)(C)CCC1 [9-cis RA, 9-cis retinoic acid, reference compound] | – | – | – | – | – | – | – | – | Relative activation of PPAR-mediated gene expression (PPAR gamma; 9-cis RA 10^−6 M, no thiazolidinedione): 4.1 x-fold |
| Cc1oc(-c2ccccc2)nc1CCOc1ccc(CC2SC(=O)NC2=O)c2sccc12 (stereo not drawn) [BM 13.1258, 5-{4-[2-(5-Methyl-2-phenyloxazol-4-yl) -ethoxy]-benzo[b]thiophen-7-ylmethyl}-thiazolidine-2,4-dione] | 40 | 604 | reduce the metastatic load | 28.0 | 4.0 | 24.4 | 3.7 | inhibit cell proliferation | Anti-tumor effect compared with troglitazone ([1]; SCID beige mice, Table 1): superior to that of troglitazone; Reduction of size of colon carcinoma ([1]; SCID beige mice, Table 1): effective in reducing the size of colon carcinoma |
| Cc1oc(-c2cccs2)nc1CCOc1ccc(CC2SC(=O)NC2=O)c2sccc12 (stereo not drawn) [BM 15.2054, 5-{4-[2-(5-Methyl-2-(thien-2-yl)oxazol-4-yl)-ethoxy]-benzo[b]thiophen-7-ylmethyl}-thiazolidine-2,4-dione] | 28 | 719 | reduce the metastatic load | 18.5 | 3.5 | 15.6 | 4.3 | inhibit cell proliferation | Inhibition relative to vehicle group (number of metastases) ([1]; 10 mg/kg oral for 42 days): 34%; Inhibition relative to vehicle group (tumor volume) ([1]; 10 mg/kg oral for 42 days): 30%; Mean tumor volume ([1]; 10 mg/kg oral for 42 days): 702 mm^3; Number of metastases ([1]; 10 mg/kg oral for 42 days): 216; Inhibition relative to vehicle group (number of metastases) ([1]; 50 mg/kg oral for 42 days): 32%; Number of metastases ([1]; 50 mg/kg oral for 42 days): 223; Number of lung metastases compared to the vehicle group ([1]; Table 2): significantly (p<0.05) reduced |
| Cc1c(C)c2c(c(C)c1O)CCC(C)(COc1ccc(CC3SC(=O)NC3=O)cc1)O2 (stereo not drawn) [Troglitazone, troglitazone, reference compound] | – | – | – | – | – | – | – | – | Inhibition relative to vehicle group (number of metastases) ([1]; 200 mg/kg oral for 42 days): −8%; Inhibition relative to vehicle group (tumor volume) ([1]; 200 mg/kg oral for 42 days): 20%; Mean tumor volume ([1]; 200 mg/kg oral for 42 days): 804 mm^3; Number of metastases ([1]; 200 mg/kg oral for 42 days): 352 |

From patent publication US7323481B2, “Thiazolidinediones alone or in combination with other therapeutic agents for inhibiting or reducing tumour growth” (Hoffmann-La Roche Inc., priority 2001, dated 2008)
